Results on seven molecules are retold here after PMC11847541, “Liver fatty acid binding protein FABP1 transfers substrates to cytochrome P450 4A11 for catalysis” (The Journal of Biological Chemistry, 2025).

In one experiment the target is FABP3. Also noted: method as in PMID 11170430. The note with it: human heart FABP (FABP3); cited from earlier work.
The target in experiment [1] is T1, FABP1 (Homo sapiens, UniProt P07148).
T1 construct: GST (N, cleaved yes); made in house; host or cells: Escherichia coli DH5α
T1 sequence (P07148 with tags, fused parts or gaps): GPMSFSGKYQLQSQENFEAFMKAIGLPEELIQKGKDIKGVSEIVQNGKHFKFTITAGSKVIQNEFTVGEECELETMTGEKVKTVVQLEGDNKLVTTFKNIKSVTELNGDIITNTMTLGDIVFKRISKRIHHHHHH
The experiment is described as follows: DAUDA displacement fluorescence titrations of DAUDA–FABP1 with fatty acids, fit in KinTek Explorer. Format: binding. The text has this:
The FABP–DAUDA system was used to screen saturated fatty acids (C12 to C18) for binding to FABP, and the Kd values were estimated in competition with the fluorophore (using its known Kd) with the kinetic modeling software KinTek Explorer. The general model is shown in Fig. 5A, where the substrate is competed against the fluorescent DAUDA–FABP1 complex for binding, yielding a ternary DAUDA–FABP1–substrate complex that is accompanied by an attenuation in fluorescence.
Figure 5 Fluorescence titrations of DAUDA–FABP1 with fatty acids (“forward” titrations).A, model of all binding equilibria accounted for in the DAUDA displacement assays. In the fluorescence assays (λex = 335 nm), DAUDA (D) binds to FABP1 (F) to form a fluorescent (indicated with yellow flash) complex (FD), with which a lipid (S) is then competed against for binding. The binding of S attenuates the fluorescence (denoted with a smaller yellow flash) and forms a ternary complex (FDS). High concentrations of S may completely displace D to form FSS, a spectroscopically silent complex. Using this method, fluorescence titrations were carried out with the fatty acids (B) laurate, (C) myristate, (D) palmitate, (E) 16-hydroxypalmitate, and (F) stearate. Fluorescence at the emission maximum (482 nm) was monitored (as in Fig. 4) and normalized to the starting fluorescence (i.e., the FD complex prior to the addition of S). Each data point corresponds to one independent replicate. DAUDA, 11-dansylaminoundecanoic acid; FABP1, fatty acid binding protein.
For the titrations with lipids, solutions of FABP1 (0.5 μM) and DAUDA (0.25 μM) were prepared such that the fluorescent species was not present in excess ([75]). A baseline was recorded with phosphate buffer, and a starting (basis) spectrum was recorded of the FABP–DAUDA complex (1 ml). The lipid solutions were gradually added to the cuvette with gentle mixing (pipetting up and down ∼7× with a pipette tip), and spectra were recorded (Fig. S12A). Control titrations were also performed the same day with solvent alone (Fig. S12B) as a normalizing factor for the lipid titrations as fluorescence attenuation was also observed to a much lesser degree as a solvent effect (Fig. S12C, D). […] The data were processed such that within the lipid titration and the solvent titration, the F482 values were normalized to the starting value (the initial FABP1–DAUDA complex with nothing added, set to 100%). The relative fluorescence of the lipid titration was then normalized to the relative fluorescence of the solvent titration to adjust for fluorescence attenuation observed in the solvent titration (presumably from altering the fluorophore environment). Thus, the data were processed according to y=(F482/F482(initial))lipid/(F482/F482(initial))solvent , and the resulting values were plotted as a function of lipid concentration (Fig. S12E). The curve was imported into KinTek Explorer ([76]) and was fit to a kinetic model (Fig. S13) to determine the Kd values (Table 1). Within the KinTek software, all fluorescent species required fluorescence scaling factors to convert signal to concentration. Scaling factors for the FABP–DAUDA complex, FABP–DAUDA–lipid complex, and DAUDA alone were 460, 92, and 8, respectively.
Figure S12. Data processing for FABP1 titration with palmitate. Fluorescence spectrum of increasing additions of (A) palmitate (0-2 µM, added in C2H5OH) and (B) C2H5OH to a mixture of DAUDA (0.25 µM) and FABP1 (0.5 µM), performed as described in the Experimental Methods (see “Titrations of FABP1 with lipids, DAUDA”). C, fluorescence values at 482 nm (F482) from the titrations presented in parts A and B are normalized to the starting values (DAUDA-FABP1 complex, no volume added). Data are reported as a function of volume of titrant added to the cuvette (black, C2H5OH alone; red, palmitate in C2H5OH). […]

Experiment [2] addresses T1, FABP1. The note with it: human FABP1, fluorescence displacement assay; read-out: Kd; cited from earlier work.
For experiment [3], the target named is T1, FABP1. Set-up: method as in PMID 10852718. The note with it: ADIFAB system; cited from earlier work.
The target of experiment [4] is FABP1. Also noted: method as in PMID 8940102. The note with it: rat protein, cited from earlier work.
The target in experiment [5] is FABP1. Also noted: method as in PMID 8541331. The note with it: bovine protein, cited from earlier work.
[6] abbreviates: lipid binding to DAUDA-bound FABP1 (DAUDA displacement), read-out: Kd, FD + S ↔ FDS.
The mark [7] stands for this setting: lipid binding to apo-FABP1, estimated via kinetic modeling, read-out: Kd, F + S ↔ FS.
[8] abbreviates: lipid binding to ternary complex FDS (full displacement of DAUDA), low-affinity site, read-out: Kd, FDS + S ↔ FSS + D.
The mark [9] stands for this setting: high-affinity site, read-out: Kd,1.
[10] abbreviates: low-affinity site, read-out: Kd,2.

In general, Kd refers to the concentration at which binding is half-saturated. In general, koff refers to the first-order rate constant of dissociation.

Read-outs that look alike come from different tables or passages of the source.

Regarding `O=C(O)CCC/C=C\C/C=C\C/C=C\C/C=C\CCCCCO` [20-HETE, 20-hydroxyeicosatetraenoic acid], the Kd on FABP3 was about 0.44 µM.
`CCCCCCCCCCCC(=O)O` [Laurate (C12), laurate]: the “% Fluorescence” value at FABP1 [1] (lipid 1 µM, FABP1 0.5 µM, DAUDA 0.25 µM, F482 normalized) is 94.95%; on FABP1 [1] (lipid 2 µM, FABP1 0.5 µM, DAUDA 0.25 µM, F482 normalized), 89.77%; on FABP1 [1] (lipid 3.5 µM, FABP1 0.5 µM, DAUDA 0.25 µM, F482 normalized), 89.03%; at FABP1 [1] (lipid 5 µM, FABP1 0.5 µM, DAUDA 0.25 µM, F482 normalized) it was 85.89%; on FABP1 [1] (lipid 7.5 µM, FABP1 0.5 µM, DAUDA 0.25 µM, F482 normalized), 85.69%; at FABP1 [1] (lipid 10 µM, FABP1 0.5 µM, DAUDA 0.25 µM, F482 normalized), 75.3%. Also, the “% Fluorescence” value on FABP1 [1] (lipid 20 µM, FABP1 0.5 µM, DAUDA 0.25 µM, F482 normalized) is 57.47%; at FABP1 [1] (lipid 35 µM, FABP1 0.5 µM, DAUDA 0.25 µM, F482 normalized), 47.27%; at FABP1 [1] (lipid 50 µM, FABP1 0.5 µM, DAUDA 0.25 µM, F482 normalized), 41.27%; at FABP1 [1] (lipid 75 µM, FABP1 0.5 µM, DAUDA 0.25 µM, F482 normalized) it was 35.15%; at FABP1 [1] (lipid 100 µM, FABP1 0.5 µM, DAUDA 0.25 µM, F482 normalized), 31.33%; on FABP1 [1] (lipid 125 µM, FABP1 0.5 µM, DAUDA 0.25 µM, F482 normalized) it was 28.58%. Moreover, the “% Fluorescence” value on FABP1 [1] (lipid 150 µM, FABP1 0.5 µM, DAUDA 0.25 µM, F482 normalized) is 29.65%; at FABP1 [1] (lipid 200 µM, FABP1 0.5 µM, DAUDA 0.25 µM, F482 normalized), 27.61%; at FABP1 [1] (lipid 300 µM, FABP1 0.5 µM, DAUDA 0.25 µM, F482 normalized) it was 25.74%; at FABP1 [1] (lipid 400 µM, FABP1 0.5 µM, DAUDA 0.25 µM, F482 normalized) it was 23.15%. The “koff, F + S ↔ FS” value at FABP1 [1] (lipid (S) binding to apo-FABP1 (F), kinetic modeling, on-rate 9.0 × 10^7 M^−1 s^−1) came out at 2700 s⁻¹. Further, the Kd at FABP1 [1] (setting [6]) is 18 µM; at FABP1 [1] (setting [7]), 30 µM; on FABP1 [1] (setting [8]), over 1000 µM. For the same molecule, the “koff, FD + S ↔ FDS” value at FABP1 [1] (lipid binding to DAUDA-bound FABP1 (FD), on-rate 2.3 × 10^7 M^−1 s^−1) came to 410 s⁻¹.
For `CCCCCCCCCCCCCC(=O)O` [Myristate (C14), myristate], at FABP1 [1] (setting [6]), the Kd was 0.86 µM. For the same molecule, at FABP1 [1] (setting [7]), the Kd was 2.6 µM. The Kd at FABP1 [1] (setting [8]) was 43 µM. For the same molecule, at FABP1 [1] (read-out: % Fluorescence), the remaining activity at 0.01 µM amounted to 98.3%, the remaining activity at 0.03 µM was found to be 99.1%, the remaining activity at 0.06 µM was 98.2% and the remaining activity at 0.1 µM worked out at 97.3%. Besides, on FABP1 [1] (read-out: % Fluorescence), the remaining activity at 0.3 µM worked out at 92.9%, the remaining activity at 0.6 µM was 81%, the remaining activity at 1 µM is 71.9% and the remaining activity at 3 µM was 42.2%. Also, at FABP1 [1] (read-out: % Fluorescence), the remaining activity at 6 µM stood at 25.9%, the remaining activity at 10 µM was found to be 18.2% and the remaining activity at 30 µM is 13.1%. In addition, the koff at FABP1 [1] (read-out: koff, F + S ↔ FS) was found to be 240 s⁻¹. Further, at FABP1 [1] (read-out: koff, FD + S ↔ FDS), the koff came to 20 s⁻¹. Moreover, on FABP1 [1] (read-out: koff, FDS + S ↔ FSS + D), the koff turned out to be 980 s⁻¹.
Consider `CCCCCCCCCCCCCCCCCC(=O)O` [Stearate (C18), stearate], for which the remaining activity at 0.01 µM at FABP1 [1] (lipid 0.01 µM, FABP1 0.5 µM, DAUDA 0.25 µM, F482 normalized, read-out: % Fluorescence) was 92.3%. Besides, the remaining activity at 0.025 µM at FABP1 [1] (lipid 0.025 µM, FABP1 0.5 µM, DAUDA 0.25 µM, F482 normalized) is 92.5%. This molecule also had a remaining activity at 0.05 µM on FABP1 [1] (lipid 0.05 µM, FABP1 0.5 µM, DAUDA 0.25 µM, F482 normalized) of 87.6%. The molecule also gave a remaining activity at 0.075 µM at FABP1 [1] (lipid 0.075 µM, FABP1 0.5 µM, DAUDA 0.25 µM, F482 normalized) of 81.3%. Also, the remaining activity at 0.1 µM on FABP1 [1] (lipid 0.1 µM, FABP1 0.5 µM, DAUDA 0.25 µM, F482 normalized, read-out: % Fluorescence) was 78.3%. Besides, the remaining activity at 0.15 µM on FABP1 [1] (lipid 0.15 µM, FABP1 0.5 µM, DAUDA 0.25 µM, F482 normalized) was 69.4%. The same molecule had a remaining activity at 0.2 µM on FABP1 [1] (lipid 0.2 µM, FABP1 0.5 µM, DAUDA 0.25 µM, F482 normalized) of 61%. At FABP1 [1] (lipid 0.25 µM, FABP1 0.5 µM, DAUDA 0.25 µM, F482 normalized), this molecule displayed a remaining activity at 0.25 µM of 54.2%. On FABP1 [1] (lipid 0.35 µM, FABP1 0.5 µM, DAUDA 0.25 µM, F482 normalized), this molecule had a remaining activity at 0.35 µM of 44.4%. For the same molecule, the remaining activity at 0.45 µM at FABP1 [1] (lipid 0.45 µM, FABP1 0.5 µM, DAUDA 0.25 µM, F482 normalized) worked out at 37.1%. On FABP1 [1] (lipid 0.6 µM, FABP1 0.5 µM, DAUDA 0.25 µM, F482 normalized, read-out: % Fluorescence), the remaining activity at 0.6 µM was determined as 31.3%. The molecule further had a remaining activity at 0.9 µM on FABP1 [1] (lipid 0.9 µM, FABP1 0.5 µM, DAUDA 0.25 µM, F482 normalized) of 24.2%. Besides, the remaining activity at 1.15 µM on FABP1 [1] (lipid 1.15 µM, FABP1 0.5 µM, DAUDA 0.25 µM, F482 normalized) was determined as 24.1%. Further, the remaining activity at 1.4 µM on FABP1 [1] (lipid 1.4 µM, FABP1 0.5 µM, DAUDA 0.25 µM, F482 normalized) came out at 23.6%. This molecule also returned a remaining activity at 1.9 µM at FABP1 [1] (lipid 1.9 µM, FABP1 0.5 µM, DAUDA 0.25 µM, F482 normalized) of 23.3%. Moreover, the koff worked out at 6.2 s⁻¹ on FABP1 [1] (lipid (S) binding to apo-FABP1 (F), kinetic modeling, on-rate 9.0 × 10^7 M^−1 s^−1, read-out: koff, F + S ↔ FS); 0.48 s⁻¹ on FABP1 [1] (lipid binding to DAUDA-bound FABP1 (FD), on-rate 2.3 × 10^7 M^−1 s^−1, read-out: koff, FD + S ↔ FDS); 770 s⁻¹ at FABP1 [1] (lipid binding to ternary complex FDS (full displacement of DAUDA), read-out: koff, FDS + S ↔ FSS + D). In addition, the Kd is 0.021 µM at FABP1 [1] (setting [6]); 0.069 µM at FABP1 [1] (setting [7]); 34 µM on FABP1 [1] (setting [8]); 0.029 ± 0.002 µM at FABP1 [2]; 0.023 µM on FABP1 [3].
For the molecule `CCCCC/C=C\C/C=C\C/C=C\C/C=C\CCCC(=O)O` [arachidonate], the Kd on FABP3 was about 0.05 µM.
With `CCCCC/C=C\C/C=C\CCCCCCCC(=O)O` [linoleate], the Kd at FABP1 [4] (setting [9]) is about 0.01 µM; on FABP1 [4] (setting [10]) it was about 0.2 µM.
On to `CCCCCCCC/C=C\CCCCCCCC(=O)O` [oleate], for which the Kd on FABP1 [5] (setting [9]) was 0.26 µM; at FABP1 [5] (setting [10]) it was over 5 µM.
